Assay results as given in patent publication US8420861B2, “Anti-tumor compounds derived from 1,4,5,8-tetrachloroanthraquinone” (priority 2007, dated 2013).
Where a name gives a salt, the structure may show the parent alone.

What was measured:
[1] = tested on: BOT-2 human breast cancer cells; assay: Cytotoxicity by visual inspection / MTT assay, 100% cell kill at serial dilutions; format: cell-based; conditions: for Activity: Table of Side Chains, scale not given; for activity compared to mitoxantrone: cytotoxicity assay
Excerpt: (§1) The MTT assay was used to determine levels of 100% and 50% cell kill. In addition to activity against cancer mitoxantrone has been used to treat certain forms of multiple sclerosis and is approved by the FDA to treat both cancer and multiple sclerosis. Mitoxantrone also has significant immune modulatory effects and could be used to treat severe forms of collagen vascular disorders.
Testing of compounds in the MTT assay. In a 72 well plate, the BOT-2 human breast cancer cells were allowed to grow for 24 hours. Following this growth time, dilutions of the drug was added. The cells were checked for percentage of cell death at 24 and 48 hours. This checking was done by visual appearance of the cells. Rounded up floating cells or disrupted cells indicating cell death. Cells flattened and attached to the bottom of the tissue culture flask indicated alive and healthy cells. At 144 hours MTT.
Visual inspection assay: BOT-2 cancer cells after treatment with an anthracycline or cytotoxic anthraquinone compounds. The dead cells become rounded, detach and float. The compound is initially dissolved in 0.1 N hydrochloric acid or dilute acetic acid. Serial 1 to 4 dilutions of the compound are made with buffered tissue culture media and pipetted into a wells of a 72 well microtiter plate. Determination is made of 100% cell death at 24, 48 and 144 hours for each well. Controls are always run concurrently. […] Previous work has determined if 100% kill is noted there is never re-growth of the tumor cells.
A solution of 1,4,5,8-Tetrakis-[2-(2-aminoethyl)amino]anthraquinone dihydrochloride (T-4) was made of 10 mg/ml in de-ionized water. This was then diluted to 1 mg/ml. This solution was filtered to sterilize. Seventy micro liters (70 μl) of this was mixed with tissue culture media and added to 70 well plate. Two hundred ten (210) cells per well were previously grown for 24 hrs prior to adding the test drug. The test compounds were added in serial 1 to 3 dilutions. 1,4,5,8-Tetrakis-[2-(2-aminoethyl)amino]anthraquinone (T-4) was tested against mitoxantrone, epirubicin, and bis-1,4-aminoethylamino-5,8-dihydroxyanthraquinone. There was also a control in which no drug was added. […] The end point for positive cell kill was 100% cell death.
A solution of 1,4,5,8-Tetrakis-N,N-dimethylaminoethylaminoanthraquinone dihydrochloride was made of 10 mg/ml in de-ionized water. This was then diluted to 1 mg/ml. This solution was filtered to sterilize. 70 μl of this was mixed with tissue culture media and added to 70 well plate. Two hundred ten (210) cells per well were previously grown for 24 hrs prior to adding the test drug. The test compounds were added in serial 1 to 3 dilutions. The 1,4,5,8-Tetrakis-N,N-dimethylaminoethylaminoanthraquinone was tested against mitoxantrone (bis-1,4-hydroxyethylaminoethylamino-5,8-dihydroxyanthraquinone dihydrochloride), epirubicin, and 1,4-bis-[(aminoethyl)amino]anthraquinone. There was also a control in which no drug was added. […] The end point for positive cell kill was 100% cell death.

[2] = tested on: BOT-2 breast cancer cell line; assay: Doublet combinations with other chemotherapy drugs, cell kill; format: cell-based, human; conditions: other drugs included docetaxel, gemcitabine and topotecan
Excerpt: as §1, with “The synthesized compounds tested were compared to mitoxantrone (Novantrone®) when tested in a tissue culture system using the BOT-2 breast cancer cell line. The” for “The”, “disorders. The compounds described in the present disclosure would be expected to have similar activities at a greater therapeutic efficacy.” for “disorders.”
These other drugs included docetaxel, gemcitabine and topotecan.

| Compound | Activity [1] | activity compared to mitoxantrone [1] | further results |
| --- | --- | --- | --- |
| NCCNc1ccc(NCCN)c2c1C(=O)c1c(NCCN)ccc(NCCN)c1C2=O [Designation T-4, 1,4,5,8-Tetrakis-[2-(2-aminoethyl)amino]anthraquinone] | 5 | more active than mitoxantrone | 100% cell kill went out to (number of 1:4 dilutions) ([1]; starting solution 1 mg/ml, end point 100% cell death): 5 1:4 dilutions |
| O=C1c2c(NCCO)ccc(NCCO)c2C(=O)c2c(NCCO)ccc(NCCO)c21 [Designation T-3, 1,4,5,8-Tetrakis-[(2-hydroxyethyl)amino]anthraquinone] | 1 |  | activity in cytotoxicity assay ([1]; end point 100% cell death, 24, 48 and 144 hrs): inactive; 100% cell kill went out to (number of dilutions) ([1]; starting solution 1 mg/ml, end point 100% cell death, at 24, 48 and 144 hrs): 1 dilutions |
| CN(C)c1ccc(NCCCl)c2c1C(=O)c1c(N(C)C)ccc(N(C)C)c1C2=O [T-2,2,2,8, 1,4,5-Tris-(N,N-dimethylamino),8-(2-chloroethylamino)anthraquinone] |  | more active than mitoxantrone |  |
| CNCCN(C)c1ccc(NCCNCCO)c2c1C(=O)c1c(N(C)CCNC)ccc(N(C)CCNC)c1C2=O [T-2,2,2,1] | 5 |  |  |
| O=C1c2c(NCCNCCO)ccc(NCCNCCO)c2C(=O)c2c(NCCNCCO)ccc(NCCNCCO)c21 [Designation T-1] | 5 | more active than mitoxantrone |  |
| O=C1c2c(O)ccc(O)c2C(=O)c2c(NCCNCCO)ccc(NCCNCCO)c21 [mitoxantrone, bis-1,4-hydroxyethylaminoethylamino-5,8-dihydroxyanthraquinone dihydrochloride, reference compound] |  |  | cell kill in doublet combination with other chemotherapy drugs [2]: extent of synergism was not seen |
| CN(C)CCNc1ccc(NCCO)c2c1C(=O)c1c(NCCN(C)C)ccc(NCCN(C)C)c1C2=O [T-2,2,2,3] | 5 |  |  |
| tetrakis-1,4,5,8-hydroxyalkylaminoethylaminoanthraquinone dihydrochloride |  |  | cell kill in doublet combination with other chemotherapy drugs [2]: synergistic cell kill (greater than additive) |
| CN(C)CCNc1ccc(NCCN(C)C)c2c1C(=O)c1c(NCCN(C)C)ccc(NCCN(C)C)c1C2=O [Designation T-2, 1,4,5,8-Tetrakis-[(2-N,N-dimethylaminoethyl)amino]anthraquinone] | 5 | more active than mitoxantrone |  |
